{"source": "patent US6589915B1", "about": "“Benzohetero cyclylcyclo hexenones and their use as herbicides” (BASF Aktiengesellschaft, priority 1999, dated 2003)", "format_in_all_cases": "in vivo", "key": {"wheat": {"tested_on": "wheat", "assay": "greenhouse post-emergence test, crop selectivity", "conditions": "0.25 and 0.5 kg/ha (a.s.)", "description": "(§1) The seeds of the test plants were sown separately for each species. For the post-emergence treatment, the test plants were first, grown to a plant height of from 3 to 15 cm, depending on the plant habit, and only then treated with the active ingredients which had been suspended or emulsified in water. To this end, the test plants were either sown directly and grown in the same containers, or they were first grown separately as seedlings and transplanted into the test containers a few days prior to treatment. […] Depending on the species, the plants were kept at from 10 to 25° C., or 20 to 35° C., respectively. The test period extended over 2 to 4 weeks. During this time, the plants were tended, and their response to the individual treatments was evaluated. Evaluation was carried out using a scale of from 0 to 100. 100 means no emergence of the plants, or complete destruction of at least the aerial parts, and 0 means no damage, or normal course of growth. [table] The following experiments were performed by the post-emergence method."}, "[1]": {"tested_on": "CHEAL (lambsquarters (goosefoot))", "assay": "greenhouse post-emergence herbicidal test", "description": "as §1"}, "AMARE (redroot pigweed)": {"tested_on": "AMARE (redroot pigweed)", "assay": "greenhouse post-emergence herbicidal test", "description": "as §1"}, "POLPE (ladysthumb)": {"tested_on": "POLPE (ladysthumb)", "assay": "greenhouse post-emergence herbicidal test", "description": "as §1"}, "IPOSS": {"tested_on": "IPOSS", "assay": "greenhouse post-emergence herbicidal test", "description": "as §1, with “growth.” for “growth. [table]”"}, "ABUTH (velvet leaf)": {"tested_on": "ABUTH (velvet leaf)", "assay": "greenhouse post-emergence herbicidal test", "description": "as §1"}, "ECHCG (barnyard grass)": {"tested_on": "ECHCG (barnyard grass)", "assay": "greenhouse post-emergence herbicidal test", "description": "as §1"}, "SETFA (giant foxtail)": {"tested_on": "SETFA (giant foxtail)", "assay": "greenhouse post-emergence herbicidal test", "description": "as §1"}, "PHPBU": {"tested_on": "PHPBU", "assay": "greenhouse post-emergence herbicidal test", "conditions": "0.125 and 0.25 kg/ha (a.s.)", "description": "(§2) The seeds of the test plants were sown separately for each species. For the post-emergence treatment, the test plants were first, grown to a plant height of from 3 to 15 cm, depending on the plant habit, and only then treated with the active ingredients which had been suspended or emulsified in water. To this end, the test plants were either sown directly and grown in the same containers, or they were first grown separately as seedlings and transplanted into the test containers a few days prior to treatment. The rat e of application for the post-emergence treatment was 0.25 or 0.125 kg of a.s. (active substance)/ha. Depending on the species, the plants were kept at from 10 to 25° C., or 20 to 35° C., respectively. The test period extended over 2 to 4 weeks. During this time, the plants were tended, and their response to the individual treatments was evaluated. Evaluation was carried out using a scale of from 0 to 100. 100 means no emergence of the plants, or complete destruction of at least the aerial parts, and 0 means no damage, or normal course of growth. [table] The following experiments were performed by the post-emergence method."}, "[2]": {"tested_on": "GALAP (catchweed bedstraw)", "assay": "greenhouse post-emergence herbicidal test", "conditions": "0.125 and 0.25 kg/ha (a.s.)", "description": "as §2"}}}
{"compound": "Cc1c(C(=O)C2=C(O)CCCC2=O)ccc2scnc12", "note": "[Example I-1a.394]", "values": [{"measurement": "selectivity in wheat", "setting": "wheat", "result": "selectivity"}, {"measurement": "herbicidal action against CHEAL", "setting": "[1]; 0.25 and 0.5 kg/ha (a.s.)", "result": "very good"}, {"measurement": "herbicidal action against AMARE", "setting": "AMARE (redroot pigweed); 0.25 and 0.5 kg/ha (a.s.)", "result": "very good"}, {"measurement": "herbicidal action against POLPE", "setting": "POLPE (ladysthumb); 0.25 and 0.5 kg/ha (a.s.)", "result": "very good"}, {"measurement": "herbicidal action against IPOSS", "setting": "IPOSS; 0.25 and 0.5 kg/ha (a.s.)", "result": "very good"}]}
{"compound": "Cc1c(C(=O)C2=C(O)CCCC2=O)ccc2sc(C(C)C)nc12", "note": "[Example I-1a.408]", "values": [{"measurement": "herbicidal action against CHEAL", "setting": "[1]; 0.125 and 0.25 kg/ha (a.s.)", "result": "good to very good"}, {"measurement": "herbicidal action against POLPE", "setting": "POLPE (ladysthumb); 0.125 and 0.25 kg/ha (a.s.)", "result": "good to very good"}, {"measurement": "herbicidal action against ABUTH", "setting": "ABUTH (velvet leaf); 0.125 and 0.25 kg/ha (a.s.)", "result": "good to very good"}, {"measurement": "herbicidal action against ECHCG", "setting": "ECHCG (barnyard grass); 0.125 and 0.25 kg/ha (a.s.)", "result": "good to very good"}]}
{"compound": "Cc1c(C(=O)C2=C(O)CC(C)(C)CC2=O)ccc2sc(Cl)nc12", "note": "[Example I-1c.396]", "values": [{"measurement": "herbicidal action against CHEAL", "setting": "[1]; 0.25 and 0.5 kg/ha (a.s.)", "result": "good to very good"}, {"measurement": "herbicidal action against SETFA", "setting": "SETFA (giant foxtail); 0.25 and 0.5 kg/ha (a.s.)", "result": "good to very good"}, {"measurement": "herbicidal action against AMARE", "setting": "AMARE (redroot pigweed); 0.25 and 0.5 kg/ha (a.s.)", "result": "good to very good"}, {"measurement": "herbicidal action against ECHCG", "setting": "ECHCG (barnyard grass); 0.25 and 0.5 kg/ha (a.s.)", "result": "good to very good"}]}
{"compound": "CCc1nc2c(C)c(C(=O)C3=C(O)C4CCC(C4)C3=O)ccc2s1", "note": "(centres unmarked) [Example I-1x.406]", "values": [{"measurement": "herbicidal action against CHEAL", "setting": "[1]; 0.125 and 0.25 kg/ha (a.s.)", "result": "very good"}, {"measurement": "herbicidal action against POLPE", "setting": "POLPE (ladysthumb); 0.125 and 0.25 kg/ha (a.s.)", "result": "very good"}, {"measurement": "herbicidal action against ABUTH", "setting": "ABUTH (velvet leaf); 0.125 and 0.25 kg/ha (a.s.)", "result": "very good"}, {"measurement": "herbicidal action against ECHCG", "setting": "ECHCG (barnyard grass); 0.125 and 0.25 kg/ha (a.s.)", "result": "very good"}]}
{"compound": "COCc1nc2c(C)c(C(=O)C3=C(O)C4CCC(C4)C3=O)ccc2s1", "note": "(centres unmarked) [Example I-1x.420]", "values": [{"measurement": "herbicidal action against PHPBU", "setting": "PHPBU", "result": "very good"}, {"measurement": "herbicidal action against CHEAL", "setting": "[1]; 0.125 and 0.25 kg/ha (a.s.)", "result": "very good"}, {"measurement": "herbicidal action against SETFA", "setting": "SETFA (giant foxtail); 0.125 and 0.25 kg/ha (a.s.)", "result": "very good"}, {"measurement": "herbicidal action against POLPE", "setting": "POLPE (ladysthumb); 0.125 and 0.25 kg/ha (a.s.)", "result": "very good"}, {"measurement": "herbicidal action against ECHCG", "setting": "ECHCG (barnyard grass); 0.125 and 0.25 kg/ha (a.s.)", "result": "very good"}]}
{"compound": "CSc1nc2c(C)c(C(=O)C3=C(O)C4CCC(C4)C3=O)ccc2s1", "note": "(centres unmarked) [Example I-1x.435]", "values": [{"measurement": "herbicidal action against CHEAL", "setting": "[1]; 0.0625 and 0.125 kg/ha (a.s.)", "result": "very good"}, {"measurement": "herbicidal action against AMARE", "setting": "AMARE (redroot pigweed); 0.0625 and 0.125 kg/ha (a.s.)", "result": "very good"}, {"measurement": "herbicidal action against ECHCG", "setting": "ECHCG (barnyard grass); 0.0625 and 0.125 kg/ha (a.s.)", "result": "very good"}]}
{"compound": "Cc1c(C(=O)C2=C(O)C3CCC(C3)C2=O)ccc2sc(Oc3ccccc3F)nc12", "note": "(centres unmarked) [Example I-1x.790]", "values": [{"measurement": "herbicidal action against CHEAL", "setting": "[1]; 0.125 and 0.25 kg/ha (a.s.)", "result": "very good"}, {"measurement": "herbicidal action against SETFA", "setting": "SETFA (giant foxtail); 0.125 and 0.25 kg/ha (a.s.)", "result": "very good"}, {"measurement": "herbicidal action against POLPE", "setting": "POLPE (ladysthumb); 0.125 and 0.25 kg/ha (a.s.)", "result": "very good"}, {"measurement": "herbicidal action against ECHCG", "setting": "ECHCG (barnyard grass); 0.125 and 0.25 kg/ha (a.s.)", "result": "very good"}]}
{"compound": "CCc1nc2c(C)c(C(=O)C3=C(O)CCCC3=O)ccc2o1", "note": "[Example I-2a.406]", "values": [{"measurement": "herbicidal action against GALAP", "setting": "[2]", "result": "good"}, {"measurement": "herbicidal action against CHEAL", "setting": "[1]; 0.125 and 0.25 kg/ha (a.s.)", "result": "very good"}, {"measurement": "herbicidal action against AMARE", "setting": "AMARE (redroot pigweed); 0.125 and 0.25 kg/ha (a.s.)", "result": "very good"}, {"measurement": "herbicidal action against ABUTH", "setting": "ABUTH (velvet leaf); 0.125 and 0.25 kg/ha (a.s.)", "result": "very good"}, {"measurement": "herbicidal action against IPOSS", "setting": "IPOSS; 0.125 and 0.25 kg/ha (a.s.)", "result": "very good"}]}
{"compound": "CCc1nc2c(C)c(C(=O)C3=C(O)C4CCC(C4)C3=O)ccc2o1", "note": "(centres unmarked) [Example I-2x.406]", "values": [{"measurement": "herbicidal action against CHEAL", "setting": "[1]; 0.0625 and 0.125 kg/ha (a.s.)", "result": "good to very good"}, {"measurement": "herbicidal action against POLPE", "setting": "POLPE (ladysthumb); 0.0625 and 0.125 kg/ha (a.s.)", "result": "good to very good"}, {"measurement": "herbicidal action against ABUTH", "setting": "ABUTH (velvet leaf); 0.0625 and 0.125 kg/ha (a.s.)", "result": "good to very good"}, {"measurement": "herbicidal action against ECHCG", "setting": "ECHCG (barnyard grass); 0.0625 and 0.125 kg/ha (a.s.)", "result": "good to very good"}]}
